23 compounds from ChEMBL document CHEMBL2401692, “Synthesis, structure-activity relationships, and in vivo efficacy of the novel potent and selective anaplastic lymphoma kinase (ALK) inhibitor 5-chloro-N2-(2-isopropoxy-5-methyl-4-(piperidin-4-yl)phenyl)-N4-(2-(isopropylsulfonyl)phenyl)pyrimidine-2,4-diamine (LDK378) currently in phase 1 and phase …” (J Med Chem, 2013) can be followed below.

The test system of series [1] is BaF3. In words: cells. To be noted: Mus musculus.
The subject of series [2] is KARPAS-299. In words: cells. The settings on record: Homo sapiens.
For series [3], the target named is T1, Voltage-gated inwardly rectifying potassium channel KCNH2 (Homo sapiens, UniProt Q12809).
T1 sequence (Q12809 whole entry): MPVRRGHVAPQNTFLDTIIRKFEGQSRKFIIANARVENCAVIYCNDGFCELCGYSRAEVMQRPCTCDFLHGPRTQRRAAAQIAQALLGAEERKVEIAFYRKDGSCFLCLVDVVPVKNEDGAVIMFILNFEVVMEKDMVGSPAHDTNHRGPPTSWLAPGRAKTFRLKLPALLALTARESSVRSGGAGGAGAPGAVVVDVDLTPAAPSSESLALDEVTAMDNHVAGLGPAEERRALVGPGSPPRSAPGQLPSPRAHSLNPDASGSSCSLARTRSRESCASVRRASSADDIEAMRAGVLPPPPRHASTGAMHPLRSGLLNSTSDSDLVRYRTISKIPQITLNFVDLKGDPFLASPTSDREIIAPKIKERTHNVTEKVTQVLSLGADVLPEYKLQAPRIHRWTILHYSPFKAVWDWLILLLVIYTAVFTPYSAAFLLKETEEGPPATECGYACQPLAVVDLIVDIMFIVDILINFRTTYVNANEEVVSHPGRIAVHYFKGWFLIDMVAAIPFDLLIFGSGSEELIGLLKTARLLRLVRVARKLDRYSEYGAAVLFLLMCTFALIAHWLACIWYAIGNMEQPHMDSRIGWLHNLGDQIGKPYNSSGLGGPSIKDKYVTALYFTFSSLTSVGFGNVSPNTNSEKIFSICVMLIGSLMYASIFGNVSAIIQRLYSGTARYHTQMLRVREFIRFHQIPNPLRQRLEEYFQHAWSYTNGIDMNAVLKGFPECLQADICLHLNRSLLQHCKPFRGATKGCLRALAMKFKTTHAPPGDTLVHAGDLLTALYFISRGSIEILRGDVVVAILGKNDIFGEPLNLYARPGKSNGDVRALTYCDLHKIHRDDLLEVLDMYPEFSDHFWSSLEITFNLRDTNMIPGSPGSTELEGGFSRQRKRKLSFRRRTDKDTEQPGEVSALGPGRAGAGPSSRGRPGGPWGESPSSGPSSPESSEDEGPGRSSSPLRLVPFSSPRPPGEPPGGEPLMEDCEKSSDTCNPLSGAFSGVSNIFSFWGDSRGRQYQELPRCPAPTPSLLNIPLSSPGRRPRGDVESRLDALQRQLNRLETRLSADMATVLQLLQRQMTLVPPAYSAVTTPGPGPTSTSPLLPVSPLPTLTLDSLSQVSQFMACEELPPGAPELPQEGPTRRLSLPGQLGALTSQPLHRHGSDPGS
Description: Inhibition of human ERG by dofetilide binding assay
A short description of series [4]: Intrinsic clearance in mouse liver microsomes. The class given is ADME, Microsome. The settings on record: read-out: CLH. Background: Liver microsomes are a subcellular fraction often used to study metabolism.
Series [5] is described as follows: Intrinsic clearance in rat liver microsomes. The class given is ADME, Microsome. The settings on record: read-out: CLH.
The nature of series [6]: Solubility of the compound […] at pH 6.8. The series is classed as physicochemical.
Series [7] is described as follows: Intrinsic clearance in human liver microsomes. The class given is ADME, Microsome. To be noted: read-out: CLH.
The target in series [8] is Cytochrome P450 3A4 (Homo sapiens, UniProt P08684). In words: Inhibition of CYP3A4 in human liver microsomes using midazolam as substrate by LC-MS/MS analysis. The series is classed as ADME, Microsome.
Chain of Cytochrome P450 3A4 (P08684 whole entry): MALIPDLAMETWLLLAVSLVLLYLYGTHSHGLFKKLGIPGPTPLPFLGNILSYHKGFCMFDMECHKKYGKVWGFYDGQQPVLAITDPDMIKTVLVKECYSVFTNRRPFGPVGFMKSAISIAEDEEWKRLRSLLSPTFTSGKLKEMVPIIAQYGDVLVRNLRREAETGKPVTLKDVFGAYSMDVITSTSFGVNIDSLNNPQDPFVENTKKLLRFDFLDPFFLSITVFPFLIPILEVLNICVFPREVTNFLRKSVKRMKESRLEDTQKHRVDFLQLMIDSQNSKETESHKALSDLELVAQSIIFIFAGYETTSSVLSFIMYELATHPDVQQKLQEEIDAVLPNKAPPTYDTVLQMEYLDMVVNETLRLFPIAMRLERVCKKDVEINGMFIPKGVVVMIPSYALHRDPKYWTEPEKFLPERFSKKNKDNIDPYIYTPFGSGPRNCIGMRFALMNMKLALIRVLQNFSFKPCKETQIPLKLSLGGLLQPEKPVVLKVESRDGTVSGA
The target in series [9] is T1, Voltage-gated inwardly rectifying potassium channel KCNH2. In words: Inhibition of human ERG by patch-clamp technique. In general terms: In patch-clamp work, channel activity is measured electrically.
The nature of series [10]: Oral bioavailability in Sprague-Dawley rat at 10 mg/kg. The class given is ADME, organism-based. The settings on record: in vivo.

One may read the IC50 as the midpoint of a concentration-inhibition curve. Read a low IC50 as higher potency. What is called solubility is how much of the substance goes into solution per volume. Broadly, the bioavailability is the share of a dose that reaches the circulation, judged against a reference dose that is usually intravenous. A higher bioavailability goes with much systemic uptake.

Converted amounts (≈) assume the structure as drawn.

For the compound `CCN1CCC(c2cc(OC(C)C)c(Nc3ncc(C)c(Nc4ccccc4S(=O)(=O)C(C)C)n3)cc2C)CC1`, the IC50 turned out to be 4 µM in series [1] and 0.0105 µM in [2].
For `Cc1cc(Nc2ncc(C)c(Nc3ccccc3S(=O)(=O)C(C)C)n2)c(OC(C)C)cc1C1CCN(CCO)CC1` the same measures were over 10 µM and 0.0238 µM.
Taken in the same sequence, the figures for `COCCN1CCC(c2cc(OC(C)C)c(Nc3ncc(C)c(Nc4ccccc4S(=O)(=O)C(C)C)n3)cc2C)CC1` were 4.41 µM and 0.0224 µM.
Taken in the same sequence, the figures for `Cc1cc(Nc2ncc(Cl)c(Nc3ccccc3S(=O)(=O)C(C)C)n2)c(OC(C)C)cc1C1CCNC(=O)C1` (centres undefined) were over 10 µM and 0.0384 µM.
In the case of `CC(C)Oc1nc(C2CCNCC2)ncc1Nc1ncc(Cl)c(Nc2ccccc2S(=O)(=O)C(C)C)n1`, the figures for the IC50 in series [3], in [1] and in series [2] were 0.4 µM, 3.8 µM and 0.0333 µM, respectively. The results for the microsomal CLint in series [4], in series [5] and in series [7] were 21 µL/min/mg, 18 µL/min/mg and 16 µL/min/mg, respectively. In addition, in series [6], the solubility came to 138 µM (≈ 75.4 µg/mL). Further, in series [8], the INH worked out at 9.3 µM.
For the compound `Cc1cc(Nc2cc(Nc3ccccc3S(=O)(=O)C(C)C)c(Cl)cn2)c(OC(C)C)cc1C1CCN(C)CC1`, the results for the IC50 in series [1] and in [2] were 5.41 µM and 5.51 µM, respectively.
Consider `Cc1cc(Nc2ncc(Cl)c(Nc3ccccc3S(=O)(=O)N(C)C)n2)c(OC(C)C)cc1C1CCN(C)CC1`, for which the values for the IC50 in [1] and in [2] were 1.19 µM and 0.0143 µM, respectively.
Taken in the same sequence, the figures for `CCN1CCC(c2cc(OC(C)C)c(Nc3ncc(Cl)c(Nc4ccccc4S(=O)(=O)C(C)C)n3)cc2C)CC1` were 4.12 µM and 0.0111 µM.
`Cc1cc(Nc2ncc(Cl)c(Nc3ccccc3S(=O)(=O)C(C)C)n2)c(OC(C)C)cc1C1CCN(C(C)C)CC1`: the IC50 in [1] came out at 3.85 µM; in series [2], 0.0145 µM.
For `Cc1cc(Nc2ncc(Cl)c(Nc3ccccc3S(=O)(=O)C(C)C)n2)c(OC(C)C)cc1C1CCN(CCO)CC1`, the microsomal CLint in [4] came to 15 µL/min/mg; in series [5], 14 µL/min/mg; in [7] it was 15 µL/min/mg. Further, the IC50 in series [1] was determined as 4.34 µM. The compound also gave a solubility in series [6] of 36 µM (≈ 21.7 µg/mL). Besides, the INH in [8] came to 2.5 µM.
Take `COCCN1CCC(c2cc(OC(C)C)c(Nc3ncc(Cl)c(Nc4ccccc4S(=O)(=O)C(C)C)n3)cc2C)CC1`: the IC50 in series [1] was 4.97 µM; in series [2] it was 0.0161 µM.
For `Cc1cc(Nc2ncc(Cl)c(Nc3ccccc3S(=O)(=O)C(C)C)n2)c(OC(C)C)cc1C1CCN(C2CCN(C)CC2)CC1` the same measures were 1.42 µM and 0.1 µM.
On to `Cc1cc(Nc2ncc(Cl)c(Nc3ccccc3S(=O)(=O)C(C)C)n2)c(OC(C)C)cc1C1CCN(CC(F)F)CC1`, for which the IC50 in series [1] is over 10 µM; in series [2], 0.293 µM.
Taken in the same sequence, the figures for `Cc1cc(Nc2ncc(Cl)c(Nc3ccccc3S(=O)(=O)C(C)C)n2)c(OC(C)C)cc1C1CCN(CC(=O)O)CC1` were over 10 µM and 0.0153 µM.
For `Cc1cc(Nc2ncc(Cl)c(Nc3ccccc3S(=O)(=O)C(C)C)n2)c(OC(C)C)cc1C1CCN(CC(N)=O)CC1` the same measures were 7.54 µM and 0.0079 µM.
As to `Cc1cc(Nc2ncc(Cl)c(Nc3ccccc3S(=O)(=O)C(C)C)n2)c(OC(C)C)cc1C1CCN(C(=O)CN(C)C)CC1`, the microsomal CLint in series [4] was 45 µL/min/mg; in series [5], 21 µL/min/mg; in [7] it was 46 µL/min/mg. Besides, the IC50 in series [1] worked out at 2.74 µM; in series [2], 0.0217 µM. The solubility in series [6] came to 4 µM (≈ 2.57 µg/mL). Further, the INH in series [8] was found to be 0.6 µM.
For `Cc1cc(Nc2ncc(C)c(Nc3ccccc3S(=O)(=O)C(C)C)n2)c(OC(C)C)cc1C1CCN(C)CC1`, the half-inhibitory concentration (IC50) worked out at 1.1 µM in series [3], 20 µM in series [9], 4.08 µM in series [1] and 0.0156 µM in series [2]. The microsomal CLint in [4] came out at 15 µL/min/mg; in series [5] it was 14 µL/min/mg; in [7] it was 8 µL/min/mg. The compound also yielded a solubility in series [6] of 144 µM (≈ 79.5 µg/mL). The same compound came in with an INH in [8] of 9.8 µM.
Regarding `CC(C)Oc1cc(N2CCC(N3CCN(C)CC3)CC2)ccc1Nc1ncc(Cl)c(Nc2ccccc2S(=O)(=O)C(C)C)n1`, the IC50 amounted to 3.4 µM in series [1] and 0.0255 µM in [2].
On to `CC(C)Oc1cc(C2CCNCC2)ccc1Nc1ncc(Cl)c(Nc2ccccc2S(=O)(=O)C(C)C)n1`, for which the microsomal CLint in [4], in [5] and in series [7] was 15 µL/min/mg in each case. Besides, the results for the IC50 in [1] and in series [2] were 3.01 µM and 0.0078 µM, respectively. In series [6], the solubility worked out at 4 µM (≈ 2.18 µg/mL). For the same compound, the bioavailability in [10] was determined as 12%. Moreover, the INH in [8] came to 1.4 µM.
Consider `Cc1cc(Nc2ncc(C)c(Nc3ccccc3S(=O)(=O)C(C)C)n2)c(OC(C)C)cc1C1CCNCC1`, for which the IC50 was found to be 2.88 µM in series [1] and 0.0131 µM in series [2].
Taken in the same sequence, the figures for `Cc1cc(Nc2ncc(Cl)c(Nc3ccccc3S(=O)(=O)C3CCC3)n2)c(OC(C)C)cc1C1CCNCC1` were 2.46 µM and 0.0135 µM.
For `Cc1cc(Nc2ncc(Cl)c(Nc3ccccc3S(=O)(=O)C(C)C)n2)c(OC2CCC2)cc1C1CCNCC1`, the microsomal CLint in [4], in series [5] and in series [7] was 15 µL/min/mg each time. The IC50 came to 2.52 µM in [1] and 0.0131 µM in series [2]. This compound yielded a solubility in series [6] of under 2 µM. This compound also came in with an INH in series [8] of 7.3 µM.
As to `Cc1cc(Nc2ncc(Cl)c(Nc3ccccc3S(=O)(=O)C(C)C)n2)c(OC(C)C)cc1C1CCN(C)CC1`, the microsomal CLint was 15 µL/min/mg in [4], 4 µL/min/mg in series [5] and 17 µL/min/mg in series [7]. Also, the results for the IC50 in series [1] and in series [2] were 4 µM and 0.0112 µM, respectively. In series [6], this compound yielded a solubility of 64 µM (≈ 36.6 µg/mL). For the same compound, the INH in series [8] came out at 2.1 µM.
